Reference: PMC3530532, “Corticosteroid-Binding Globulin: Structure-Function Implications from Species Differences” (PLoS ONE, 2012)

Experiments:
Rat CBG-RCL1 = biological target: T1, Rat CBG-RCL1 (Rattus norvegicus, UniProt P31211, A357V/P358T); test: Isothermal titration calorimetry, steroid titrated to uncleaved rat CBG-RCL1; type: binding; conditions: ITC, 25°C
T1 construct: residues 5 to 374 of rat CBG (P31211); GST (N, cleaved yes); made in house; host or cells: E. coli BL21 Star (DE3)
T1 sequence (P31211 27-396 A357V/P358T): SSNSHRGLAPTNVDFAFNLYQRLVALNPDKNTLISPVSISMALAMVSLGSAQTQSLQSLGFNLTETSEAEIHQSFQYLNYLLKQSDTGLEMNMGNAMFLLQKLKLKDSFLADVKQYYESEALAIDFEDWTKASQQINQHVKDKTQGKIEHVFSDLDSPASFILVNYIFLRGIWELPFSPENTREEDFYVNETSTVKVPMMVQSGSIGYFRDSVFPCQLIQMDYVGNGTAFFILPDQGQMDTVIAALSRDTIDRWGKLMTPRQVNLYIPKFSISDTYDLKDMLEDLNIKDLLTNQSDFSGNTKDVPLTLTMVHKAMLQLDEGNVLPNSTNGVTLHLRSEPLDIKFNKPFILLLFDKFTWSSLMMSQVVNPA
Procedure: The coding sequences of residues 11 to 383 of human CBG (Swiss-Prot entry P08185) and residues 5 to 374 of rat CBG (P31211) were cloned into a pGEX-2T vector (GE Healthcare, Uppsala), yielding N-terminal glutathione-S-transferase (GST) fusion proteins. Mutations were introduced using a two-stage PCR procedure based on the QuikChange (Stratagene, Santa Clara) site-directed mutagenesis protocol. All experiments with human CBG were conducted with a mutant in which surface residue Lys126 was replaced by alanine in order to facilitate crystallization. Wild-type rat CBG (rat CBG-WT) and rat CBG mutants CBG-RCL1, CBG-RCL2 and CBG-RCL3 were produced to probe the function of the RCL residues in rat CBG. All gene constructs were confirmed by DNA sequencing prior to protein production.
The GST-tagged human and rat CBG variants were produced in E. coli BL21 Star™ (DE3) cells (Invitrogen, Carlsbad) using the ZYM-5052 auto-inducing medium. For each variant, 10 L of ZYM-5052 medium containing 100 µg/mL ampicillin were inoculated with an overnight culture of a single clone. The flasks were incubated at 37°C until the optical density at 600 nm reached 0.3. The temperature was then lowered to 20°C, and the cells were allowed to grow for an additional 20 h. The pellet was resuspended in PBS buffer (pH 7.4) containing 5 mM EDTA after cell harvesting (4 mL of buffer per gram of pellet).
The protein samples were dialyzed against ITC buffer (20 mM potassium phosphate, 50 mM NaCl, pH 7.4) and titrated with steroids in a VP-ITC microcalorimeter (Microcal, Piscataway). All solutions were filtered (0.2 µm filter pore size) and degassed for 30 min prior to the titration experiments. The sample cell was filled with protein solution containing 15 µM rat CBG or 20 µM human CBG and titrated with steroid solutions containing 150 µM and 200 µM ligand, respectively. The titrations consisted of an initial injection of 2 µL followed by 25 consecutive injections of 10 µL ligand solution at 25°C. A spacing of 240 sec between the injections was used to allow a return to the baseline. Data points from the initial injection, which are generally affected by diffusion during the initial equilibration period after experiment setup, were discarded prior to data analysis. […] The binding curve was generated by plotting the heats of injections against the ratio of ligand to protein in the cell. Integrated heat data were analyzed using nonlinear regression fit with a one-site-binding model in the Origin-7™ software provided with the VP-ITC. Changes in the free energy and entropy can be calculated using the equation: ΔG° = −RTlnK = ΔH°−TΔS°. In this equation ΔG° is the change in Gibbs free energy, R the universal gas constant, T the temperature, and K the association constant. […]

human CBG = biological target: human CBG; parameters: method as in PMID 20631013; conditions: 37°C, fluorescence measurements; cited from earlier work
cleaved human CBG = biological target: cleaved human CBG; parameters: method as in PMID 21325280; conditions: 37°C, cited from earlier work

C[C@]12CCC(=O)C=C1CC[C@@H]1[C@@H]2[C@@H](O)C[C@@]2(C)[C@H]1CC[C@]2(O)C(=O)CO [Hydrocortisone]
TΔS° (Rat CBG-RCL1): -29.02 kcal/mol
ΔG° (Rat CBG-RCL1): -9.61 kcal/mol
ΔH° (Rat CBG-RCL1): -38.62 kcal/mol
Kd (Rat CBG-RCL1; single titration): 95 ± 7 nM
Kd (human CBG): 18 nM
Kd (cleaved human CBG; cleaved human CBG-WT, read-out: K d 37°C): 1370 ± 124 nM
difference of affinities of uncleaved and cleaved human CBG (cleaved human CBG; fluorescence titration): about 4.7 fold
